Laboratory results: PubChem BioAssay (NCI)
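Tested at 5 concentrations; 48 h exposure; 96-well plates; endpoints linearly interpolated, else capped at highest concentration. At the GI50, growth is halved. TGI is the concentration that stops growth completely.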

tested on: RXF 393 renal; assay: NCI-60 cell line screen, 48 h

Going from `Nc1ccc([N+](=O)[O-])cc1N=C/C=C/c1ccccc1` to `O=C(Nc1ccc(Nc2ccncc2)cc1)c1ccc([N+](=O)[O-])cc1`, the GI50 falls from 22.7 µM to 3.35 µM (6.8-fold).

Going from `CNCc1ccccc1-c1csc([C@@H](C)Nc2nc(C)nc3cc(OC)c(OC)cc23)c1` to `COc1cc(OCc2cccc(-c3ccc(C(O)c4nccs4)cc3)c2C)cc(OC)c1C=O` (configuration not stated), the GI50 rises from 1.31 µM to 2.22 µM (1.7-fold).

First: Cn1cc(C2=C(c3ccc(N)cc3)C(=O)NC2=O)c2ccccc21
Second: COC(=O)c1ccc2c(c1)nc(NC(=O)c1ccccc1)n2CCCc1ccccc1
The GI50 of the first is 3.4-fold lower: 4.85 µM for the first, 16.3 µM for the second.

`CCN(CC)CCC(CNc1ccnc2cc(Cl)ccc12)c1ccc(Cl)cc1` (configuration not stated) and `CC1(C)N=C(N)N=C(N)N1c1ccc(CCCCc2ccc(Cl)cc2S(=O)(=O)F)c(Cl)c1` are within 1.5-fold of each other in GI50: 1.04 µM for the first, 1.26 µM for the second.

First: COc1cccc(F)c1C(=O)c1cnc(NC2CCN(S(C)(=O)=O)CC2)nc1N
Second: COc1ccccc1/C=N\N/C(N)=N\N=C\c1ccccc1OC
The GI50 of the first is 7.1-fold higher: 1.88 µM for the first, 0.265 µM for the second.

First: O=C(O)COc1ccc2c(=O)c3sc4c(=O)c5ccccc5c(=O)c4c3c(=O)c2c1
Second: CC[As](CC)SC[C@H](C)C(=O)N1CCC[C@H]1C(=O)O
The GI50 of the first is higher: 12.6 µM for the first, under 0.0297 µM for the second.

`Nc1ccc([N+](=O)[O-])cc1N=C/C=C/c1ccccc1` and `Cc1ccc(S(=O)(=O)Nc2ccccc2C=O)cc1` cannot be ordered by TGI: over 100 µM for the first, over 100 µM for the second.

First: COc1cccc(C2CC(C)(O)Oc3cc4c(cc32)OCO4)c1O (configuration not stated)
Second: COc1cccc(F)c1C(=O)c1cnc(NC2CCN(S(C)(=O)=O)CC2)nc1N
The TGI of the first is higher: over 79.8 µM for the first, 6.19 µM for the second.

Compared with `CCN(CC)CCCN1CCc2c([nH]c3ccccc23)C1c1cccnc1` (configuration not stated), `CCN(CC)CCC(CNc1ccnc2cc(Cl)ccc12)c1ccc(Cl)cc1` (configuration not stated) is lower in TGI: over 100 µM for the first, 2.32 µM for the second.

Compared with `CNCc1ccccc1-c1csc([C@@H](C)Nc2nc(C)nc3cc(OC)c(OC)cc23)c1`, `COc1cc(OCc2cccc(-c3ccc(C(O)c4nccs4)cc3)c2C)cc(OC)c1C=O` (configuration not stated) is 2.4-fold higher in TGI: 2.84 µM for the first, 6.93 µM for the second.

Compared with `Nc1nc(Cl)cc(NCCCCCCCCNc2cc(Cl)nc(N)n2)n1`, `CC1(C)N=C(N)N=C(N)N1c1ccc(CCCCc2ccc(Cl)cc2S(=O)(=O)F)c(Cl)c1` is 3.5-fold lower in TGI: 72 µM for the first, 20.4 µM for the second.

`Cn1cc(C2=C(c3ccc(N)cc3)C(=O)NC2=O)c2ccccc21` and `COC(=O)c1ccc2c(c1)nc(NC(=O)c1ccccc1)n2CCCc1ccccc1` cannot be ordered by TGI: over 22.9 µM for the first, over 100 µM for the second.

Compared with `Cc1cc(Cl)cc(OCCn2cc(F)cn2)c1-c1nc(N)nc2c1CN(C(=O)NCC(C)(F)F)C2`, `CCOC(=O)C(C#N)C1=CC(=O)C(=O)c2ccc(OC)cc21` (configuration not stated) is lower in TGI: over 100 µM for the first, 47.5 µM for the second.

Going from `O=C(O)COc1ccc2c(=O)c3sc4c(=O)c5ccccc5c(=O)c4c3c(=O)c2c1` to `O=C(Nc1ccc2ncccc2c1)Nc1ccc2ncccc2c1`, the TGI rises from 28.1 µM to over 100 µM.

`Cc1ccc(S(=O)(=O)N(C=O)N=C2CCN(Cc3ccccc3)CC2)cc1` and `COc1ccccc1/C=N\N/C(N)=N\N=C\c1ccccc1OC` cannot be ordered by TGI: over 100 µM for the first, over 100 µM for the second.

Going from `CC1(C)S[C@@H]2[C@H](NC(=O)C3(N)CCCCC3)C(=O)N2[C@H]1C(=O)O` to `CC[As](CC)SC[C@H](C)C(=O)N1CCC[C@H]1C(=O)O`, the TGI falls from over 100 µM to 0.475 µM.

Going from `O=C(Nc1ccc(Nc2ccncc2)cc1)c1ccc([N+](=O)[O-])cc1` to `C(=NCCN1CCOCC1)=NC1CCCCC1`, the TGI rises from 12.4 µM to over 100 µM.

tested on: M14 melanoma; assay: NCI-60 cell line screen, 48 h

`Nc1ccc([N+](=O)[O-])cc1N=C/C=C/c1ccccc1` and `O=C(Nc1ccc(Nc2ccncc2)cc1)c1ccc([N+](=O)[O-])cc1` are within 1.5-fold of each other in GI50: 8.66 µM for the first, 7.18 µM for the second.

`CNCc1ccccc1-c1csc([C@@H](C)Nc2nc(C)nc3cc(OC)c(OC)cc23)c1` and `COc1cc(OCc2cccc(-c3ccc(C(O)c4nccs4)cc3)c2C)cc(OC)c1C=O` (configuration not stated) are within 1.5-fold of each other in GI50: 1.79 µM for the first, 2.55 µM for the second.

Compared with `Cn1cc(C2=C(c3ccc(N)cc3)C(=O)NC2=O)c2ccccc21`, `COC(=O)c1ccc2c(c1)nc(NC(=O)c1ccccc1)n2CCCc1ccccc1` is lower in GI50: over 20.4 µM for the first, 2.28 µM for the second.

Compared with `Cc1cc(Cl)cc(OCCn2cc(F)cn2)c1-c1nc(N)nc2c1CN(C(=O)NCC(C)(F)F)C2`, `COc1cccc(F)c1C(=O)c1cnc(NC2CCN(S(C)(=O)=O)CC2)nc1N` is 63-fold higher in GI50: 0.0848 µM for the first, 5.33 µM for the second.

Going from `CCN(CC)CCC(CNc1ccnc2cc(Cl)ccc12)c1ccc(Cl)cc1` (configuration not stated) to `CC1(C)N=C(N)N=C(N)N1c1ccc(CCCCc2ccc(Cl)cc2S(=O)(=O)F)c(Cl)c1`, the GI50 rises from 0.211 µM to 0.421 µM (2-fold).

Going from `O=C(O)COc1ccc2c(=O)c3sc4c(=O)c5ccccc5c(=O)c4c3c(=O)c2c1` to `COc1ccccc1/C=N\N/C(N)=N\N=C\c1ccccc1OC`, the GI50 falls from 2.69 µM to 0.266 µM (10-fold).

Molecule `CC[As](CC)SC[C@H](C)C(=O)N1CCC[C@H]1C(=O)O` has a GI50 of 0.0257 µM.

Going from `Nc1ccc([N+](=O)[O-])cc1N=C/C=C/c1ccccc1` to `Cc1ccc(S(=O)(=O)Nc2ccccc2C=O)cc1`, the TGI falls from over 100 µM to 54.7 µM.

`COc1cccc(C2CC(C)(O)Oc3cc4c(cc32)OCO4)c1O` (configuration not stated) and `COc1cccc(F)c1C(=O)c1cnc(NC2CCN(S(C)(=O)=O)CC2)nc1N` cannot be ordered by TGI: over 65.8 µM for the first, over 25 µM for the second.

First: CCN(CC)CCCN1CCc2c([nH]c3ccccc23)C1c1cccnc1 (configuration not stated)
Second: CCN(CC)CCC(CNc1ccnc2cc(Cl)ccc12)c1ccc(Cl)cc1 (configuration not stated)
The TGI of the first is higher: over 100 µM for the first, 0.47 µM for the second.

Compared with `CNCc1ccccc1-c1csc([C@@H](C)Nc2nc(C)nc3cc(OC)c(OC)cc23)c1`, `COc1cc(OCc2cccc(-c3ccc(C(O)c4nccs4)cc3)c2C)cc(OC)c1C=O` (configuration not stated) is 2.3-fold higher in TGI: 3.35 µM for the first, 7.61 µM for the second.

Going from `Nc1nc(Cl)cc(NCCCCCCCCNc2cc(Cl)nc(N)n2)n1` to `CC1(C)N=C(N)N=C(N)N1c1ccc(CCCCc2ccc(Cl)cc2S(=O)(=O)F)c(Cl)c1`, the TGI falls from over 100 µM to 17.8 µM.

`Cn1cc(C2=C(c3ccc(N)cc3)C(=O)NC2=O)c2ccccc21` and `COC(=O)c1ccc2c(c1)nc(NC(=O)c1ccccc1)n2CCCc1ccccc1` cannot be ordered by TGI: over 25 µM for the first, over 100 µM for the second.

Compared with `Cc1cc(Cl)cc(OCCn2cc(F)cn2)c1-c1nc(N)nc2c1CN(C(=O)NCC(C)(F)F)C2`, `CCOC(=O)C(C#N)C1=CC(=O)C(=O)c2ccc(OC)cc21` (configuration not stated) is lower in TGI: over 100 µM for the first, 29.8 µM for the second.

Compared with `O=C(O)COc1ccc2c(=O)c3sc4c(=O)c5ccccc5c(=O)c4c3c(=O)c2c1`, `O=C(Nc1ccc2ncccc2c1)Nc1ccc2ncccc2c1` is higher in TGI: 7.53 µM for the first, over 100 µM for the second.

Compared with `Cc1ccc(S(=O)(=O)N(C=O)N=C2CCN(Cc3ccccc3)CC2)cc1`, `COc1ccccc1/C=N\N/C(N)=N\N=C\c1ccccc1OC` is lower in TGI: over 100 µM for the first, 3.13 µM for the second.

Compared with `CC1(C)S[C@@H]2[C@H](NC(=O)C3(N)CCCCC3)C(=O)N2[C@H]1C(=O)O`, `CC[As](CC)SC[C@H](C)C(=O)N1CCC[C@H]1C(=O)O` is lower in TGI: over 100 µM for the first, 0.0895 µM for the second.

First: O=C(Nc1ccc(Nc2ccncc2)cc1)c1ccc([N+](=O)[O-])cc1
Second: C(=NCCN1CCOCC1)=NC1CCCCC1
The TGI of the first is lower: 26.9 µM for the first, over 100 µM for the second.

tested on: OVCAR-8 ovarian; assay: NCI-60 cell line screen, 48 h

Going from `Nc1ccc([N+](=O)[O-])cc1N=C/C=C/c1ccccc1` to `Cn1cc(C2=C(c3ccc(N)cc3)C(=O)NC2=O)c2ccccc21`, the GI50 rises from 23.5 µM to over 25 µM.

`CNCc1ccccc1-c1csc([C@@H](C)Nc2nc(C)nc3cc(OC)c(OC)cc23)c1` and `COc1cc(OCc2cccc(-c3ccc(C(O)c4nccs4)cc3)c2C)cc(OC)c1C=O` (configuration not stated) are within 1.5-fold of each other in GI50: 2.29 µM for the first, 2.9 µM for the second.

Compared with `Cc1cc(Cl)cc(OCCn2cc(F)cn2)c1-c1nc(N)nc2c1CN(C(=O)NCC(C)(F)F)C2`, `COc1cccc(F)c1C(=O)c1cnc(NC2CCN(S(C)(=O)=O)CC2)nc1N` is 53-fold higher in GI50: 0.0776 µM for the first, 4.08 µM for the second.

Molecule `CCN(CC)CCC(CNc1ccnc2cc(Cl)ccc12)c1ccc(Cl)cc1` (configuration not stated) has a GI50 of 1.86 µM.

`Nc1ccc([N+](=O)[O-])cc1N=C/C=C/c1ccccc1` and `Cn1cc(C2=C(c3ccc(N)cc3)C(=O)NC2=O)c2ccccc21` cannot be ordered by TGI: over 100 µM for the first, over 25 µM for the second.

`COc1cccc(C2CC(C)(O)Oc3cc4c(cc32)OCO4)c1O` (configuration not stated) and `COc1cccc(F)c1C(=O)c1cnc(NC2CCN(S(C)(=O)=O)CC2)nc1N` cannot be ordered by TGI: 67.8 µM for the first, over 25 µM for the second.

Compared with `CCN(CC)CCCN1CCc2c([nH]c3ccccc23)C1c1cccnc1` (configuration not stated), `CCN(CC)CCC(CNc1ccnc2cc(Cl)ccc12)c1ccc(Cl)cc1` (configuration not stated) is lower in TGI: over 100 µM for the first, 4.79 µM for the second.

Compared with `CNCc1ccccc1-c1csc([C@@H](C)Nc2nc(C)nc3cc(OC)c(OC)cc23)c1`, `COc1cc(OCc2cccc(-c3ccc(C(O)c4nccs4)cc3)c2C)cc(OC)c1C=O` (configuration not stated) is 3.1-fold higher in TGI: 7.65 µM for the first, 23.6 µM for the second.

First: Nc1nc(Cl)cc(NCCCCCCCCNc2cc(Cl)nc(N)n2)n1
Second: Cc1cc(Cl)cc(OCCn2cc(F)cn2)c1-c1nc(N)nc2c1CN(C(=O)NCC(C)(F)F)C2
The TGI of the first is lower: 58.6 µM for the first, over 100 µM for the second.

For `CCOC(=O)C(C#N)C1=CC(=O)C(=O)c2ccc(OC)cc21` (configuration not stated), the TGI was 54.4 µM.
